Measurements: patent publication US11261201B2 (priority 2018, dated 2022)
Converted amounts (≈) assume the structure as drawn. Counter-ions that a name gives are not always drawn. Like-named read-outs stand apart in the source and are kept apart here.

How the values were obtained:
A. baumannii = assay: Gram negative MIC protocol (OD600, LB, 24 h); conditions: Acinetobacter baumannii, read-out: MIC A. baumannii LB Media, A. baumannii, LB media, 24 h, OD600
Method: (§1) Overnight bacterial cultures were grown in LB with no added antibiotics at 37° C. with shaking. A 1:1000 dilution of these cultures into LB was exposed to concentration gradients of compounds in 96-well plates (100 μL per well assay volume). Resulting plates were incubated at 37° C. for 24 h without shaking, and OD600 was measured at the end of the incubation. MICs were determined as the lowest concentrations at which OD600 remained at baseline.

E. coli = assay: Gram negative MIC protocol (OD600, LB, 24 h); conditions: Escherichia coli
Method: as §1

H37RvMA = assay: Tuberculosis Alamar Blue/Resazurin assay (MIC); type: cell-based; conditions: Mycobacterium tuberculosis, H37RV, read-out: WT H37Rv MTB Activity
[1] = read-out: MIC E. coli delta-TolC LB Media, E. coli delta-TolC, LB media, OD600
[2] = read-out: MIC WT E. coli LB Media, WT E. coli, LB media, OD600
[3] = read-out: MIC E. coli delta-TolC LB Media, E. coli delta-TolC strain, LB media, 24 h, OD600
[4] = read-out: MIC WT E. coli LB Media, wild-type E. coli, LB media, 24 h, OD600

Row | SMILES | MIC (A. baumannii) [µM] | MIC (E. coli; [1]) [µM] | MIC (E. coli; [2]) [µM] | MIC (H37RvMA; WT H37Rv MTB) [µM] | MIC (E. coli; [3]) [µM] | MIC (E. coli; [4]) [µM] | MIC (H37RvMA) [µM]
1 | c1ccc(CNCCN2CCc3ccccc3C2)cc1 [B129] | > 150 | > 150 | > 150 | > 150 | – | – | –
2 | c1cncc(-c2ccccc2CNCCC2CCCCC2)c1 [B231, 2-cyclohexyl-N-(2-(pyridin-3-yl)benzyl)ethanamine hydrochloride] | > 300 | – | – | > 150 | 54 | 300 | –
3 | CC(CC1CCCCC1)NCc1ccccc1OCC1CN(C)C(=O)O1 (stereo not shown) [B372] | > 150 | – | – | > 150 | 5 (≈ 1.8 µg/mL) | 150 (≈ 54.1 µg/mL) | –
4 | CC(CC1CCOCC1)NCc1ccccc1 (stereo not shown) [B29] | > 150 | > 150 | > 150 | > 150 | – | – | –
5 | CC(CC1CCCCC1)NCc1ccccc1OCCOCC1CC1 (stereo not shown) [B261] | > 150 | – | – | 150 (≈ 51.8 µg/mL) | 4 (≈ 1.38 µg/mL) | > 150 | –
6 | c1ccc(OCC2CCOCC2)c(CNCCC2CCCCC2)c1 [B331, 2-cyclohexyl-N-(2-((tetrahydro-2H-pyran-4-yl)methoxy)benzyl)ethanamine] | > 150 | – | – | > 150 | 33 (≈ 10.9 µg/mL) | > 150 | –
7 | c1cc(CNCCC2CCCCC2)c2[nH]ccc2c1 [B352] | 150 (≈ 38.5 µg/mL) | – | – | 91 (≈ 23.3 µg/mL) | 91 (≈ 23.3 µg/mL) | 91 (≈ 23.3 µg/mL) | –
8 | COc1cccc2c1B(O)OC2CNCc1ccccc1 (stereo not shown) [B220, 3-((benzylamino)methyl)-7-methoxybenzo[c][1,2]oxaborol-1(3H)-ol hydrochloride] | > 300 | – | – | > 150 | > 300 | > 300 | –
9 | c1ccc(CNCCC2CCCOC2)cc1 (stereo not shown) [B83] | > 150 | > 150 | > 150 | > 150 | – | – | –
10 | CC(CC1CCCCC1)NCc1ccccc1CS(=O)(=O)N[C@H]1C[C@H](C(=O)O)C1 (stereo partly drawn) [B456, (1S,3S)-3-(((2-(((1-cyclohexylpropan-2-yl)amino)methyl)phenyl)methyl)sulfonamido)cyclobutane-1-carboxylic acid] | > 150 | 33 (≈ 13.9 µg/mL) | > 150 | > 150 | – | – | –
11 | NS(=O)(=O)Cc1ccccc1CNCCC1CCCCC1 [B380] | > 150 | – | – | > 150 | 12 (≈ 3.73 µg/mL) | 33 (≈ 10.2 µg/mL) | –
12 | COc1cc(CC(C)NCc2ccccc2)ncn1 (stereo not shown) [B84] | > 150 | > 150 | > 150 | – | – | – | > 150
13 | CC(CC1CCCCC1)NCc1ccccc1OCc1ncnn1C (stereo not shown) [B248] | > 150 | – | – | > 150 | 20 (≈ 6.85 µg/mL) | > 150 | –
14 | CC(CC1CCCCC1)NCc1ccccc1OC1CC2CC1C1CCCC21 (stereo not shown) [B393, 1-cyclohexyl-N-(2-((octahydro-1H-4,7-methanoinden-5-yl)oxy)benzyl)propan-2-amine] | 150 (≈ 57.2 µg/mL) | – | – | 20.2 (≈ 7.71 µg/mL) | 7 (≈ 2.67 µg/mL) | > 150 | –
15 | CCN(CC)CCOc1ccccc1CNC(C)CC1CCCCC1 (stereo not shown) [B249] | > 150 | – | – | > 150 | > 150 | > 150 | –
16 | CCCC(CC1CCCCC1)NCc1ccccc1 (stereo not shown) [B165, N-benzyl-1-cyclohexylpentan-2-amine] | > 150 | 60 (≈ 15.6 µg/mL) | > 300 | > 150 | – | – | –
17 | c1ccc(CNCCC2CCCCN2)cc1 (stereo not shown) [B360] | > 150 | – | – | > 150 | > 150 | > 150 | –
18 | C1=C(CCNCc2ccccc2)CCCCC1 [B71] | > 150 | 90 (≈ 20.6 µg/mL) | 150 (≈ 34.4 µg/mL) | 91 (≈ 20.9 µg/mL) | – | – | –
19 | c1ccc(CNCCc2ccnc3ccccc23)cc1 [B119] | > 150 | > 150 | > 150 | > 150 | – | – | –
20 | CCc1noc(COc2ccccc2CNC(C)CC2CCCCC2)n1 (stereo not shown) [B324] | > 150 | – | – | > 150 | 7 (≈ 2.5 µg/mL) | > 150 | –
21 | CC(CNCc1ccccc1)C1CCCC1 (stereo not shown) [B5] | > 150 | > 150 | > 150 | > 150 | – | – | –
22 | CC(NCc1ccccc1)C1CC1c1ccc(F)cc1 (stereo not shown) [B76] | > 150 | > 150 | > 150 | > 150 | – | – | –
